≈ marks a conversion by molar mass, not a printed value. Calls of active or inactive are those of the source. No cut-off for these calls is given here.
Columns and labels:
[1] = Solubility of the compound in saline/solutol HS-15 (90/10% V/V) at pH 7.4; format: physicochemical
[2] = Solubility of the compound in saline/solutol HS-15 (95/5% V/V) at pH 7.4; format: physicochemical
[3] = system: Bel-7402; assay: Antiproliferative activity against human Bel-7402 cells by MTT assay; format: functional, cell-based
[4] = Solubility of the compound in 0.9% NaCl at pH 7.4; format: physicochemical
[5] = Solubility of the compound in saline/DMSO (95/5% V/V) at pH 7.4; format: physicochemical
[6] = Solubility of the compound in PBS/DMSO (95/5% V/V) at pH 7.2 to 7.4; format: physicochemical
[7] = Solubility of the compound in saline/PEG400 (80/20% V/V) at pH 7.4; format: physicochemical
[8] = Solubility of the compound in saline/DMSO/solutol HS-15 (85/5/10% V/V/V) at pH 7.4; format: physicochemical
[9] = Stability of the compound in PBS at pH 4 to 9 measured at 25 degree C measured of 7 days by HPLC analysis; format: physicochemical; conditions: buffer, pH 4, 168 h; time 7 day
[10] = Stability of the compound in absence of light of 100 lux measured of 3 days by HPLC analysis; format: physicochemical; conditions: 72 h; time 3 day
[11] = system: HepG2; assay: Antitumor activity against human HepG2 cells xenografted in BALB/c nude mouse assessed as tumor growth inhibition at 45 mg/kg, po qd administered daily for 21 consecutive days and measured every 3 days upto 21 days relative to control; format: functional; conditions: HepG2, 504 h, time <= 21 day, read-out: TGI
[12] = Toxicity in BALB/c mouse xenografted with human HepG2 cells assessed as adverse effect at 15 to 45 mg/kg, po qd at 45 mg/kg, po treated daily for 21 days measured every 3 days for 21 days; format: organism-based; conditions: in vivo, 504 h, dose 15-45 mg/kg, time 21 day
[13] = system: HepG2; assay: Antitumor activity against human HepG2 cells xenografted in BALB/c nude mouse assessed as reduction in tumor weight at 45 mg/kg, po qd administered daily for 21 consecutive days and measured on day 21; format: functional, organism-based; conditions: time <= 21.0 day
[14] = system: HepG2; assay: Antitumor activity against human HepG2 cells xenografted in BALB/c nude mouse assessed as tumor growth inhibition at 1 mg/kg, iv qd administered daily for 21 consecutive days and measured every 3 days upto 21 days relative to control; format: functional; conditions: HepG2, 504 h, time <= 21 day, read-out: TGI
[15] = system: HepG2; assay: Antitumor activity against human HepG2 cells xenografted in BALB/c nude mouse assessed as tumor growth inhibition at 9 mg/kg, iv qd administered daily for 21 consecutive days and measured every 3 days upto 21 days relative to control; format: functional; conditions: HepG2, 504 h, time <= 21 day, read-out: TGI
[16] = Toxicity in BALB/c mouse xenografted with human HepG2 cells assessed as change in body weight at 1 to 9 mg/kg, iv qd at 45 mg/kg, po treated daily for 21 days measured every 3 days upto 21 days; format: organism-based; conditions: in vivo, 504 h, dose 1-9 mg/kg, time < 21 day
[17] = Half life in ICR mouse at 45 mg/kg, po measured after 0.083 to 12 hrs by UPLC-MS/MS analysis; format: ADME, organism-based; conditions: in vivo, time 0.083-12 hrs
[18] = AUC (0 to t) in ICR mouse at 45 mg/kg, po measured after 0.083 to 12 hrs by UPLC-MS/MS analysis; format: ADME, organism-based; set-up: dose 45 mg/kg, time upper 12 hrs, time lower 0.083 hrs, route po; conditions: in vivo
[19] = Apparent volume of distribution in ICR mouse at 45 mg/kg, po measured after 0.083 to 12 hrs by UPLC-MS/MS analysis; format: ADME, organism-based; conditions: in vivo, time 0.083-12 hrs
[20] = Clearance in ICR mouse at 45 mg/kg, po measured after 0.083 to 12 hrs by UPLC-MS/MS analysis; format: ADME, organism-based; conditions: in vivo, time 0.083-12 hrs
[21] = Oral bioavailability in ICR mouse at 45 mg/kg measured after 0.083 to 12 hrs by UPLC-MS/MS analysis; format: ADME, organism-based; conditions: in vivo, time 0.083-12 hrs
[22] = MRT (0 to t) in ICR mouse at 10 mg/kg, iv measured after 0.083 to 12 hrs by UPLC-MS/MS analysis; format: ADME, organism-based; conditions: in vivo, time 0.083-12 hrs
[23] = Drug distribution in ICR mouse duodenum at 100 mg/kg, ip measured upto 0.5 hrs by UPLC-MS/MS analysis; format: ADME, organism-based; conditions: in vivo
[24] = Drug distribution in ICR mouse liver at 100 mg/kg, ip measured upto 0.5 hrs by UPLC-MS/MS analysis; format: ADME, organism-based; conditions: in vivo
[25] = Drug distribution in ICR mouse kidney at 100 mg/kg, ip measured upto 0.5 hrs by UPLC-MS/MS analysis; format: ADME, organism-based; conditions: in vivo
[26] = Drug elimination in ICR mouse liver at 100 mg/kg, ip measured for 1.5 hrs by UPLC-MS/MS analysis; format: ADME, organism-based; conditions: in vivo
[27] = Drug elimination in ICR mouse kidney at 100 mg/kg, ip measured for 1.5 hrs by UPLC-MS/MS analysis; format: ADME, organism-based; conditions: in vivo
[28] = Drug elimination in ICR mouse duodenum at 100 mg/kg, ip measured for 1.5 hrs by UPLC-MS/MS analysis; format: ADME, organism-based; conditions: in vivo
[29] = Acute toxicity in po dosed ICR mouse assessed as maximum tolerated dose; format: organism-based; conditions: in vivo
[30] = Acute toxicity in ip dosed ICR mouse assessed as maximum tolerated dose; format: organism-based; conditions: in vivo
[31] = Toxicity in ICR mouse assessed as change in body weight at 45 mg/kg, po qd measured for 14 days; format: organism-based; conditions: in vivo, 336 h, time 14 day
[32] = Toxicity in ICR mouse assessed as mortality at 45 mg/kg, po qd measured for 14 days; format: organism-based; conditions: in vivo, 336 h, time 14 day
[33] = Hepatotoxicity in ICR mouse assessed as change in blood AST level at 45 mg/kg, po by biochemical assay; format: toxicity, organism-based; conditions: in vivo
[34] = Hepatotoxicity in ICR mouse assessed as change in blood ALP level at 45 mg/kg, po by biochemical assay; format: toxicity, organism-based; conditions: in vivo
[35] = Renal toxicity in ICR mouse assessed as change in blood UA level at 45 mg/kg, po by biochemical assay; format: organism-based; conditions: in vivo
[36] = Renal toxicity in ICR mouse assessed as change in blood CK level at 45 mg/kg, po by biochemical assay; format: organism-based; conditions: in vivo
[37] = Toxicity in ICR mouse assessed as effect on liver at 45 mg/kg, po measured after 2 weeks by H and E staining based analysis; format: organism-based; conditions: in vivo, 336 h
[38] = Toxicity in ICR mouse assessed as effect on spleen at 45 mg/kg, po measured after 2 weeks by H and E staining based analysis; format: organism-based; conditions: in vivo, 336 h
[39] = Toxicity in ICR mouse assessed as effect on lung at 45 mg/kg, po measured after 2 weeks by H and E staining based analysis; format: organism-based; conditions: in vivo, 336 h
[40] = target: Voltage-gated inwardly rectifying potassium channel KCNH2 (Homo sapiens, UniProt Q12809); assay: Inhibtion of hERG transfected in HEK293 cells by whole cell patch clamp method; format: toxicity, cell-based
[41] = system: HepG2; assay: Antitumor activity against human HepG2 cells xenografted in BALB/c nude mouse assessed as reduction in tumor weight at 1 to 9 mg/kg, iv qd administered daily for 21 consecutive days measured on day 21; format: functional, organism-based; conditions: dose 1-9 mg/kg, time 21.0 day

Chain of Voltage-gated inwardly rectifying potassium channel KCNH2 (Q12809 whole entry): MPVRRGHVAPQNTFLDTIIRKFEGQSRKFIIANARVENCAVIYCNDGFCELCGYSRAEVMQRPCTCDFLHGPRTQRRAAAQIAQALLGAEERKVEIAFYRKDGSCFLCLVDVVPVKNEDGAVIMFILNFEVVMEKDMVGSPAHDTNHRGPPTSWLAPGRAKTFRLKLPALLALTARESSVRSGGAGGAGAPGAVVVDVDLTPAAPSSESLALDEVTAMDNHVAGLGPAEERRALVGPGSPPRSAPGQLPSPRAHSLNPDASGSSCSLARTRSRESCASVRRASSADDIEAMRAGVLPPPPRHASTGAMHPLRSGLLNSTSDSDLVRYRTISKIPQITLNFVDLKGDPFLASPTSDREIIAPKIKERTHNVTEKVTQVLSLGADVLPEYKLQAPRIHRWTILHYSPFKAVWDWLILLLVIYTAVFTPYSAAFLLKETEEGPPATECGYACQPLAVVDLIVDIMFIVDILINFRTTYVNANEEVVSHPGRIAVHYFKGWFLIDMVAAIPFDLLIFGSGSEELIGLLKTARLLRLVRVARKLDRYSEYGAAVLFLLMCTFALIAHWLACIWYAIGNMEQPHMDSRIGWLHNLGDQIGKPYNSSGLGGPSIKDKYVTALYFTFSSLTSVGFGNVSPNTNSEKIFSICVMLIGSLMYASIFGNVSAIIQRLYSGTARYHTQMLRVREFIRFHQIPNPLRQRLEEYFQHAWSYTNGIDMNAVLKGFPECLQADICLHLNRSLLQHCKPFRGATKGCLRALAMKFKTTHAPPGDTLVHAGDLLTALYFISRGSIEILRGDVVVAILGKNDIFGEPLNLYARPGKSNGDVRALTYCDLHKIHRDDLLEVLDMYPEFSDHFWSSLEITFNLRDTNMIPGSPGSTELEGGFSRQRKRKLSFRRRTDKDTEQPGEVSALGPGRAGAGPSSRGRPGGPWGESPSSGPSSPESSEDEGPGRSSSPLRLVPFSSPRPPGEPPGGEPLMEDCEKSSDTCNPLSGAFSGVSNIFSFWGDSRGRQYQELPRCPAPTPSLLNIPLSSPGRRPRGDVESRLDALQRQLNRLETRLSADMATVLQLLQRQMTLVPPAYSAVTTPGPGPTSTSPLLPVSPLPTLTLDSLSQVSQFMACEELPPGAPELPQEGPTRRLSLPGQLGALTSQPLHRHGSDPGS

For C[C@H]1CCC/C=C/[C@@H]2C[C@H](OC(=O)OCc3cccnc3)C[C@H]2[C@H](O)/C=C/C(=O)O1, the solubility [1] was 5000 µg/mL (≈ 12000 µM), the solubility [2] was 1000 µg/mL (≈ 2410 µM) and the IC50 [3] was 70 nM. For the same compound, the solubility [4] was less than 1000 µg/mL, the solubility [5] was less than 1000 µg/mL and the solubility [6] was less than 1000 µg/mL. For the same compound, the solubility [7] was less than 1000 µg/mL, the solubility [8] was 15000 µg/mL (≈ 36100 µM) and the Stability [9] was “Stable”. For the same compound, the Stability [10] was “Stable”, the inhibition in vivo at 45 mg/kg [11] was 61% and the Activity [12] was “Non-Toxic”. For the same compound, the Activity [13] was “Active”, the inhibition in vivo at 1 mg/kg [14] was 36.6% and the inhibition in vivo at 9 mg/kg [15] was 48.3%. For the same compound, the Activity [16] was “Non-Toxic”, the half-life [17] was 7.35 h and the AUC(0-t) [18] was 52.9 ng·h/mL. It also gave a Vz [19] of 6339.7436 L/kg, a CL/F [20] of 598 L/h/kg and a bioavailability [21] of 2.26%. For the same compound, the MRT last [22] was 0.84 h, the Drug uptake [23] was “Active” and the Drug uptake [24] was “Active”. For the same compound, the Drug uptake [25] was “Active”, the Drug excretion [26] was “Active” and the Drug excretion [27] was “Active”. The Drug excretion [28] was “Active”, the MTD [29] was greater than 750 mg/kg and the MTD [30] was greater than 100 mg/kg. For the same compound, the Activity [31] was “Non-Toxic”, the Activity [32] was “Non-Toxic” and the Activity [33] was “Non-Toxic”. The Activity [34] was “Non-Toxic”, the Activity [35] was “Non-Toxic” and the Activity [36] was “Non-Toxic”. For the same compound, the Activity [37] was “Non-Toxic”, the Activity [38] was “Non-Toxic” and the Activity [39] was “Non-Toxic”. The IC50 [40] was greater than 30000 nM and the Activity [41] was “Active”.

Reference: ChEMBL document CHEMBL5113532, “Design and Characterization of a Natural Arf-GEFs Inhibitor Prodrug CHNQD-01255 with Potent Anti-Hepatocellular Carcinoma Efficacy In Vivo” (J Med Chem, 2022)
